Where “and” joins values, the source holds several entries; their conditions need not be identical. Equal entries are not always repeated.
Conditions: Crystal, Calculated from knudsen effusion weight loss

Cc1cc(C(=O)O)c(C)o1 [2,5-dimethyl-3-furancarboxylic acid]
Conditions | vapor or sublimation pressure
309.19 K | 0.0001409 kPa and 0.000132 kPa and 0.0001359 kPa
311.12 K | 0.0001806 kPa and 0.0001768 kPa and 0.0001708 kPa
313.08 K | 0.0002273 kPa and 0.0002279 kPa and 0.0002259 kPa
315.18 K | 0.0002809 kPa and 0.0002804 kPa and 0.0002914 kPa
317.12 K | 0.0003673 kPa and 0.0003617 kPa and 0.0003524 kPa
319.08 K | 0.0004503 kPa and 0.0004556 kPa and 0.000449 kPa
321.18 K | 0.0005801 kPa and 0.0005612 kPa and 0.000567 kPa
323.09 K | 0.0007336 kPa and 0.0007218 kPa and 0.0007101 kPa
325.07 K | 0.0009185 kPa and 0.000908 kPa and 0.0008953 kPa
325.19 K | 0.0009292 kPa and 0.000927 kPa and 0.0008864 kPa
327.1 K | 0.001147 kPa and 0.001128 kPa and 0.001102 kPa

Reference: the NIST ThermoML archive (doi:10.1016/j.jct.2010.07.006)
